Experimental data reported in US10125148B2, “Pyrazolopyrimidine macrocycles as inhibitors of human immunodeficiency virus replication” (priority 2014, dated 2018).
Like-named read-outs stand apart in the source and are kept apart here.

Tests used:
[1] = rcm bond
NL-RLuc virus = experiment: Inhibition of HIV replication (NL-RLuc luciferase reporter virus in MT-2 cells); type: cell-based; conditions: Human immunodeficiency virus 1, MT2, 120 h

SMILES	EC50 (NL-RLuc virus) [nM]	further results
CCOC(=O)[C@@H](OC(C)(C)C)c1c(C)nc2cc3nn2c1N1CCC(C)(CC1)OC/C=C/[C@H](C)Oc1cc(C)cc(F)c1-c1cccc-3c1		ring closure, isolated yield ([1]; from C=CCOC1(C)CCN(c2c([C@H](OC(C)(C)C)C(=O)OCC)c(C)nc3cc(-c4cccc(-c5c(F)cc(C)cc5O[C@@H](C)C=C)c4)nn23)CC1, 19-membered ring, Grubbs II (0.1 eq)/CuI, DCE, 1.09 mM, 2.0 h): 72%
COC(=O)[C@@H](OC(C)(C)C)c1c(C)nc2cc3nn2c1N1CCC(C)(CC1)OC/C=C/C[C@H](C)Oc1cc(C)cc(F)c1-c1cccc-3c1		ring closure, isolated yield ([1]; from C=CCOC1(C)CCN(c2c([C@H](OC(C)(C)C)C(=O)OC)c(C)nc3cc(-c4cccc(-c5c(F)cc(C)cc5O[C@@H](C)CC=C)c4)nn23)CC1, 20-membered ring, Ru-SIMes catalyst (name truncated), 3.0 h): 78%
CCOC(=O)[C@@H](OC(C)(C)C)c1c(C)nc2cc3nn2c1N1CCC(C)(CC1)OCC=CC[C@H](C)Oc1ccc(C(=O)OC)cc1-c1cccc-3c1		ring closure, isolated yield ([1]; from C=CCOC1(C)CCN(c2c([C@H](OC(C)(C)C)C(=O)OCC)c(C)nc3cc(-c4cccc(-c5cc(C(=O)OC)ccc5O[C@@H](C)CC=C)c4)nn23)CC1, 20-membered ring, Hoveyda-Grubbs II (0.1 eq)/CuI, DCE, 1.52 mM, 80.0 °C, 3.0 h): 83%
CCOC(=O)[C@@H](OC(C)(C)C)c1c(C)nc2cc3nn2c1N1CCC(C)(CC1)OC/C=C/[C@H](C)Oc1ccc(C)c(F)c1-c1cccc-3c1		ring closure, isolated yield ([1]; from C=CCOC1(C)CCN(c2c([C@H](OC(C)(C)C)C(=O)OCC)c(C)nc3cc(-c4cccc(-c5c(O[C@@H](C)C=C)ccc(C)c5F)c4)nn23)CC1, 19-membered ring, Grubbs II (0.1 eq)/CuI, DCE, 1.33 mM, 2.0 h): 94%
Cc1nc2cc3nn2c(c1[C@H](OC(C)(C)C)C(=O)O)N1CCC(C)(CC1)OCCCC[C@H](C)Oc1cc(F)c(F)cc1-c1cccc-3c1 [Example 2, (2S)-2-(tert-Butoxy)-2-[(22S)-17,18-difluoro-4,22,28-trimethyl-21,27-dioxa-1,5,7,8-tetraazahexacyclo[26.2.2.1^6,9.1^10,14.0^2,7.0^15,20]tetratriaconta-2,4,6(34),8,10(33),11,13,15(20),16,18-decaen-3-yl]acetic acid]	26	
Cc1nc2cc3nn2c(c1[C@H](OC(C)(C)C)C(=O)O)N1CCC(C)(CC1)OC/C=C/[C@H](C)Oc1ccc(F)cc1-c1cccc-3c1 [Example 13, (2S)-2-(tert-Butoxy)-2-[(22S,23E)-17-fluoro-4,22,27-trimethyl-21,26-dioxa-1,5,7,8-tetraazahexacyclo[25.2.2.1^6,9.1^10,14.0^2,7.0^15,20]tritriaconta-2,4,6(33),8,10(32),11,13,15(20),16,18,23-undecaen-3-yl]acetic acid]	4	
CCOC(=O)[C@@H](OC(C)(C)C)c1c(C)nc2cc3nn2c1N1CCC(C)(CC1)OC/C=C/C(C)Oc1cc(F)ccc1-c1cccc-3c1 (stereo partly drawn)		ring closure, isolated yield ([1]; from C=CCOC1(C)CCN(c2c([C@H](OC(C)(C)C)C(=O)OCC)c(C)nc3cc(-c4cccc(-c5ccc(F)cc5O[C@@H](C)C=C)c4)nn23)CC1, 19-membered ring, Grubbs II (0.1 eq)/CuI, DCE, 1.27 mM, 2.0 h): 96%
Cc1nc2cc3nn2c(c1[C@H](OC(C)(C)C)C(=O)O)N1CCC(C)(CC1)OCCCC[C@H](C)Oc1cc(F)ccc1-c1cc(F)cc-3c1 [Example 27, (2S)-2-(tert-Butoxy)-2-[(22S)-12,18-difluoro-4,22,28-trimethyl-21,27-dioxa-1,5,7,8-tetraazahexacyclo[26.2.2.1^6,9.1^10,14.0^2,7.0^15,20]tetratriaconta-2,4,6(34),8,10(33),11,13,15(20),16,18-decaen-3-yl]acetic acid]	45	
CCOC(=O)[C@@H](OC(C)(C)C)c1c(C)nc2cc3nn2c1N1CCC(C)(CC1)OC/C=C/[C@H](C)Oc1cc(C)ccc1-c1cccc-3c1		ring closure, isolated yield ([1]; from C=CCOC1(C)CCN(c2c([C@H](OC(C)(C)C)C(=O)OCC)c(C)nc3cc(-c4cccc(-c5ccc(C)cc5O[C@@H](C)C=C)c4)nn23)CC1, 19-membered ring, Grubbs II (0.1 eq)/CuI, DCE, 1.32 mM, 2.0 h): 69.5%
CCOC(=O)[C@@H](OC(C)(C)C)c1c(C)nc2cc3nn2c1N1CCC(C)(CC1)OC/C=C/[C@H](C)Oc1ccc(F)cc1-c1cccc-3c1		ring closure, isolated yield ([1]; from C=CCOC1(C)CCN(c2c([C@H](OC(C)(C)C)C(=O)OCC)c(C)nc3cc(-c4cccc(-c5cc(F)ccc5O[C@@H](C)C=C)c4)nn23)CC1, 19-membered ring, Grubbs II (0.1 eq)/CuI, DCE, 1.36 mM, 2.0 h): 67.3%
Cc1ccc2c(c1F)-c1cccc(c1)-c1cc3nc(C)c([C@H](OC(C)(C)C)C(=O)O)c(n3n1)N1CCC(C)(CC1)OCCC[C@H](C)O2 [Example 12, (2S)-2-(tert-Butoxy)-2-[(22S)-16-fluoro-4,17,22,27-tetramethyl-21,26-dioxa-1,5,7,8-tetraazahexacyclo[25.2.2.1^6,9.1^10,14.0^2,7.0^15,20]tritriaconta-2,4,6(33),8,10(32),11,13,15(20),16,18-decaen-3-yl]acetic acid]	3	
Cc1ccc2c(c1)O[C@@H](C)CCCOC1(C)CCN(CC1)c1c([C@H](OC(C)(C)C)C(=O)O)c(C)nc3cc(nn13)-c1cccc-2c1 [Example 16, (2S)-2-(tert-Butoxy)-2-[(22S)-4,18,22,27-tetramethyl-21,26-dioxa-1,5,7,8-tetraazahexacyclo[25.2.2.1^6,9.1^10,14.0^2,7.0^15,20]tritriaconta-2,4,6(33),8,10(32),11,13,15(20),16,18-decaen-3-yl]acetic acid]	8	
Cc1nc2cc3nn2c(c1[C@H](OC(C)(C)C)C(=O)O)N1CCC(C)(CC1)OCCCC[C@H](C)Oc1ccc(C(=O)NCCC(C)(C)C)cc1-c1cccc-3c1 [Example 25, (2S)-2-(tert-Butoxy)-2-[(22S)-17-[(3,3-dimethylbutyl)carbamoyl]-4,22,28-trimethyl-21,27-dioxa-1,5,7,8-tetraazahexacyclo[26.2.2.1^6,9.1^10,14.0^2,7.0^15,20]tetratriaconta-2,4,6(34),8,10(33),11,13,15(20),16,18-decaen-3-yl]acetic acid]	4	
Cc1nc2cc3nn2c(c1[C@H](OC(C)(C)C)C(=O)O)N1CCC(C)(CC1)OCCC[C@H](C)Oc1cc(F)ccc1-c1cccc-3c1 [Example 10, (2S)-2-(tert-Butoxy)-2-[(22S)-18-fluoro-4,22,27-trimethyl-21,26-dioxa-1,5,7,8-tetraazahexacyclo[25.2.2.1^6,9.1^10,14.0^2,7.0^15,20]tritriaconta-2,4,6(33),8,10(32),11,13,15(20),16,18-decaen-3-yl]acetic acid]	11	
Cc1nc2cc3nn2c(c1[C@H](OC(C)(C)C)C(=O)O)N1CCC(C)(CC1)OCCC[C@H](C)Oc1ccc(F)cc1-c1cccc-3c1 [Example 14, (2S)-2-(tert-Butoxy)-2-[(22S)-17-fluoro-4,22,27-trimethyl-21,26-dioxa-1,5,7,8-tetraazahexacyclo[25.2.2.1^6,9.1^10,14.0^2,7.0^15,20]tritriaconta-2,4,6(33),8,10(32),11,13,15(20),16,18-decaen-3-yl]acetic acid]	9	
Cc1nc2cc3nn2c(c1[C@H](OC(C)(C)C)C(=O)O)N1CCC(C)(CC1)OCCCC[C@H](C)Oc1cc(F)ccc1-c1cc-3ccc1F [Example 28, (2S)-2-(tert-Butoxy)-2-[(22S)-13,18-difluoro-4,22,28-trimethyl-21,27-dioxa-1,5,7,8-tetraazahexacyclo[26.2.2.1^6,9.1^10,14.0^2,7.0^15,20]tetratriaconta-2,4,6(34),8,10(33),11,13,15(20),16,18-decaen-3-yl]acetic acid]	27	
Cc1cc(F)c2c(c1)O[C@@H](C)/C=C/COC1(C)CCN(CC1)c1c([C@H](OC(C)(C)C)C(=O)O)c(C)nc3cc(nn13)-c1cccc-2c1 [Example 17, (2S)-2-(tert-Butoxy)-2-[(22S,23E)-16-fluoro-4,18,22,27-tetramethyl-21,26-dioxa-1,5,7,8-tetraazahexacyclo[25.2.2.1^6,9.1^10,14.0^2,7.0^15,20]tritriaconta-2,4,6(33),8,10(32),11,13,15(20),16,18,23-undecaen-3-yl]acetic acid]	9	
Cc1nc2cc3nn2c(c1[C@H](OC(C)(C)C)C(=O)O)N1CCC(C)(CC1)OCCCC[C@H](C)Oc1cc(F)ccc1-c1ccc(F)c-3c1 [Example 26, (2S)-2-(tert-Butoxy)-2-[(22S)-11,18-difluoro-4,22,28-trimethyl-21,27-dioxa-1,5,7,8-tetraazahexacyclo[26.2.2.1^6,9.1^10,14.0^2,7.0^15,20]tetratriaconta-2,4,6(34),8,10(33),11,13,15(20),16,18-decaen-3-yl]acetic acid]	49	
Cc1ccc2c(c1F)-c1cccc(c1)-c1cc3nc(C)c([C@H](OC(C)(C)C)C(=O)O)c(n3n1)N1CCC(C)(CC1)OC/C=C/[C@H](C)O2 [Example 11, (2S)-2-(tert-Butoxy)-2-[(22S,23E)-16-fluoro-4,17,22,27-tetramethyl-21,26-dioxa-1,5,7,8-tetraazahexacyclo[25.2.2.1^6,9.1^10,14.0^2,7.0^15,20]tritriaconta-2,4,6(33),8,10(32),11,13,15(20),16,18,23-undecaen-3-yl]acetic acid]	3	
CCc1ccc2c(c1)-c1cccc(c1)-c1cc3nc(C)c([C@H](OC(C)(C)C)C(=O)O)c(n3n1)N1CCC(C)(CC1)OC/C=C/C[C@H](C)O2 [Example 6, (2S)-2-(tert-Butoxy)-2-[(22S)-17-ethyl-4,22,28-trimethyl-21,27-dioxa-1,5,7,8-tetraazahexacyclo[26.2.2.1^6,9.1^10,14.0^2,7.0^15,20]tetratriaconta-2,4,6(34),8,10(33),11,13,15(20),16,18,24-undecaen-3-yl]acetic acid]	31	
Cc1ccc2c(c1)O[C@@H](C)/C=C/COC1(C)CCN(CC1)c1c([C@H](OC(C)(C)C)C(=O)O)c(C)nc3cc(nn13)-c1cccc-2c1 [Example 15, (2S)-2-(tert-Butoxy)-2-[(22S,23E)-4,18,22,27-tetramethyl-21,26-dioxa-1,5,7,8-tetraazahexacyclo[25.2.2.1^6,9.1^10,14.0^2,7.0^15,20]tritriaconta-2,4,6(33),8,10(32),11,13,15(20),16,18,23-undecaen-3-yl]acetic acid]	8	
